Assay results reported in US20180273531A1, “PYRIMIDINE COMPOUND AND MEDICAL USE THEREOF” (Japan Tobacco Inc., priority 2004, published 2018).

What follows are compounds tested on p27 protein (assay: p27 protein induction test (Western blotting)). Settings: test substance (0.1 1M), 24 hrs, ACHN cells or HT-29 cells, compared to DMSO, n=2.
Format: cell-based
In short: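 ACHN or HT-29 cells grown 24 h, then treated with test substance at […] (DMSO) for 24 h. Lysates normalised by protein content and probed by Western blot with anti-p27 antibody. Band density quantified by densitometer against DMSO control, n=2 averaged.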
In the case of `Cc1c(=O)n(C)c(Nc2ccc(I)cc2F)c2c(=O)n(C3CC3)c(=O)n(-c3cccc(NC=O)c3)c12` [Example 4-113], the fold induction at 0.1 µM is reported as at least 1.5. In the case of `Cc1c(=O)n(C)c(Nc2ccc(I)cc2F)c2c(=O)n(C3CC3)c(=O)n(-c3cccc(N4CCNS4(=O)=O)c3)c12` [Example 4-114], the fold induction at 0.1 µM is reported as at least 1.5. `Cc1c(=O)n(C)c(Nc2ccc(I)cc2F)c2c(=O)n(C3CC3)c(=O)n(-c3ccc4cn[nH]c4c3)c12` [Example 4-115] showed a fold induction at 0.1 µM of at least 1.5. `Cc1c(=O)n(C)c(Nc2ccc(I)cc2F)c2c(=O)n(C3CC3)c(=O)n(-c3ccc(NS(C)(=O)=O)c(Cl)c3)c12` [Example 4-116] gave a fold induction at 0.1 µM of at least 1.5. With `Cc1cc(-n2c(=O)n(C3CC3)c(=O)c3c(Nc4ccc(I)cc4F)n(C)c(=O)c(C)c32)ccc1NS(C)(=O)=O` [Example 4-117] the fold induction at 0.1 µM was at least 1.5. For `Cc1c(=O)n(C)c(Nc2ccc(I)cc2F)c2c(=O)n(C3CC3)c(=O)n(-c3ccc4c(c3)NC(=O)CO4)c12` [Example 4-118], the fold induction at 0.1 µM was at least 1.5. In the case of `Cc1c(=O)n(C)c(Nc2ccc(I)cc2F)c2c(=O)n(C)c(=O)n(-c3ccc(S(N)(=O)=O)cc3)c12` [Example 4-119], the fold induction at 0.1 µM is reported as at least 1.5. Work on `CSc1ccc(Nc2c3c(=O)n(C4CC4)c(=O)n(-c4cccc(NS(N)(=O)=O)c4)c3c(C)c(=O)n2C)c(F)c1` [Example 4-120] yielded a fold induction at 0.1 µM of at least 1.5. `Cc1c(=O)n(C)c(Nc2ccc(I)cc2F)c2c(=O)n(C3CC3)c(=O)n(-c3ccc4[nH]nnc4c3)c12` [Example 4-121] gave a fold induction at 0.1 µM of at least 1.5.

What follows are compounds tested on Renal cancer cell line ACHN cell (assay: Growth inhibitory effect against cancer cell lines (3H-thymidine uptake), ACHN). Settings: Homo sapiens, ACHN.
Format: cell-based
In short: (§1)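 Cells seeded at 1.0×10^4/well, grown 24 hrs, then exposed to compound in DMSO for 18 hrs before 6 hrs pulse with ^3H-thymidine (0.25 μCi/well). Harvested cell-incorporated radioactivity counted; IC50 is the concentration halving uptake versus DMSO control, triplicate.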
`Cc1c(=O)n(C)c(Nc2ccc(I)cc2F)c2c(=O)n(C3CC3)c(=O)n(-c3cccc(NC=O)c3)c12` [Example 4-113] gave an IC50 of under 10 nM. `Cc1c(=O)n(C)c(Nc2ccc(I)cc2F)c2c(=O)n(C3CC3)c(=O)n(-c3cccc(N4CCNS4(=O)=O)c3)c12` [Example 4-114] showed an IC50 of 10 to 100 nM. `Cc1c(=O)n(C)c(Nc2ccc(I)cc2F)c2c(=O)n(C3CC3)c(=O)n(-c3ccc4cn[nH]c4c3)c12` [Example 4-115] gave an IC50 of 10 to 100 nM. For `Cc1c(=O)n(C)c(Nc2ccc(I)cc2F)c2c(=O)n(C3CC3)c(=O)n(-c3ccc(NS(C)(=O)=O)c(Cl)c3)c12` [Example 4-116], the IC50 was 100 to 1000 nM. For `Cc1cc(-n2c(=O)n(C3CC3)c(=O)c3c(Nc4ccc(I)cc4F)n(C)c(=O)c(C)c32)ccc1NS(C)(=O)=O` [Example 4-117], the IC50 was 100 to 1000 nM. `Cc1c(=O)n(C)c(Nc2ccc(I)cc2F)c2c(=O)n(C3CC3)c(=O)n(-c3ccc4c(c3)NC(=O)CO4)c12` [Example 4-118] was tested, and the IC50 was 10 to 100 nM. Compound `Cc1c(=O)n(C)c(Nc2ccc(I)cc2F)c2c(=O)n(C)c(=O)n(-c3ccc(S(N)(=O)=O)cc3)c12` [Example 4-119] has an IC50 of 10 to 100 nM. `CSc1ccc(Nc2c3c(=O)n(C4CC4)c(=O)n(-c4cccc(NS(N)(=O)=O)c4)c3c(C)c(=O)n2C)c(F)c1` [Example 4-120] showed an IC50 of 10 to 100 nM. `Cc1c(=O)n(C)c(Nc2ccc(I)cc2F)c2c(=O)n(C3CC3)c(=O)n(-c3ccc4[nH]nnc4c3)c12` [Example 4-121] was tested, and the IC50 was 10 to 100 nM.

These compounds were tested on colorectal cancer cell line HT-29 cells (assay: Growth inhibitory effect against cancer cell lines (3H-thymidine uptake), HT-29). Settings: Homo sapiens, HT-29, inhibition of 3H-thymidine uptake; test substance 18 hrs, then 3H-thymidine 6 hrs; triplicate.
Format: cell-based
In short: as §1
For `Cc1c(=O)n(C)c(Nc2ccc(I)cc2F)c2c(=O)n(C3CC3)c(=O)n(-c3cccc(NC=O)c3)c12` [Example 4-113], the IC50 was under 10 nM. `Cc1c(=O)n(C)c(Nc2ccc(I)cc2F)c2c(=O)n(C3CC3)c(=O)n(-c3cccc(N4CCNS4(=O)=O)c3)c12` [Example 4-114] showed an IC50 of under 10 nM. `Cc1c(=O)n(C)c(Nc2ccc(I)cc2F)c2c(=O)n(C3CC3)c(=O)n(-c3ccc4cn[nH]c4c3)c12` [Example 4-115] showed an IC50 of under 10 nM. `Cc1c(=O)n(C)c(Nc2ccc(I)cc2F)c2c(=O)n(C3CC3)c(=O)n(-c3ccc(NS(C)(=O)=O)c(Cl)c3)c12` [Example 4-116] showed an IC50 of under 10 nM. Work on `Cc1cc(-n2c(=O)n(C3CC3)c(=O)c3c(Nc4ccc(I)cc4F)n(C)c(=O)c(C)c32)ccc1NS(C)(=O)=O` [Example 4-117] yielded an IC50 of under 10 nM. `Cc1c(=O)n(C)c(Nc2ccc(I)cc2F)c2c(=O)n(C3CC3)c(=O)n(-c3ccc4c(c3)NC(=O)CO4)c12` [Example 4-118] gave an IC50 of under 10 nM. With `Cc1c(=O)n(C)c(Nc2ccc(I)cc2F)c2c(=O)n(C)c(=O)n(-c3ccc(S(N)(=O)=O)cc3)c12` [Example 4-119] the IC50 was under 10 nM. Compound `CSc1ccc(Nc2c3c(=O)n(C4CC4)c(=O)n(-c4cccc(NS(N)(=O)=O)c4)c3c(C)c(=O)n2C)c(F)c1` [Example 4-120] has an IC50 of under 10 nM. `Cc1c(=O)n(C)c(Nc2ccc(I)cc2F)c2c(=O)n(C3CC3)c(=O)n(-c3ccc4[nH]nnc4c3)c12` [Example 4-121] was tested, and the IC50 was under 10 nM.

Each compound was assayed on p15 protein (assay: Evaluation of p15 induction activity (Western blotting)). Settings: test substance 0.1 μM, 24 hrs, ACHN cells or HT-29 cells, compared to DMSO, n=2.
Format: cell-based
In short: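 p15 protein quantified by densitometry of anti-p15 Western blots (10 μg protein per lane, mean of n=2). Samples came from HT-29 or ACHN cells given 0.1 μM compound for 24 h after 24 h plating, with DMSO as control.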
Compound `Cc1c(=O)n(C)c(Nc2ccc(I)cc2F)c2c(=O)n(C3CC3)c(=O)n(-c3cccc(NC=O)c3)c12` [Example 4-113] has a fold induction at 0.1 µM of at least 1.5. For `Cc1c(=O)n(C)c(Nc2ccc(I)cc2F)c2c(=O)n(C3CC3)c(=O)n(-c3cccc(N4CCNS4(=O)=O)c3)c12` [Example 4-114], the fold induction at 0.1 µM was at least 1.5. `Cc1c(=O)n(C)c(Nc2ccc(I)cc2F)c2c(=O)n(C3CC3)c(=O)n(-c3ccc4cn[nH]c4c3)c12` [Example 4-115] gave a fold induction at 0.1 µM of at least 1.5. Work on `Cc1c(=O)n(C)c(Nc2ccc(I)cc2F)c2c(=O)n(C3CC3)c(=O)n(-c3ccc(NS(C)(=O)=O)c(Cl)c3)c12` [Example 4-116] yielded a fold induction at 0.1 µM of at least 1.5. With `Cc1cc(-n2c(=O)n(C3CC3)c(=O)c3c(Nc4ccc(I)cc4F)n(C)c(=O)c(C)c32)ccc1NS(C)(=O)=O` [Example 4-117] the fold induction at 0.1 µM was at least 1.5. With `Cc1c(=O)n(C)c(Nc2ccc(I)cc2F)c2c(=O)n(C3CC3)c(=O)n(-c3ccc4c(c3)NC(=O)CO4)c12` [Example 4-118] the fold induction at 0.1 µM was at least 1.5. `Cc1c(=O)n(C)c(Nc2ccc(I)cc2F)c2c(=O)n(C)c(=O)n(-c3ccc(S(N)(=O)=O)cc3)c12` [Example 4-119] was tested, and the fold induction at 0.1 µM was at least 1.5. With `CSc1ccc(Nc2c3c(=O)n(C4CC4)c(=O)n(-c4cccc(NS(N)(=O)=O)c4)c3c(C)c(=O)n2C)c(F)c1` [Example 4-120] the fold induction at 0.1 µM was at least 1.5. Compound `Cc1c(=O)n(C)c(Nc2ccc(I)cc2F)c2c(=O)n(C3CC3)c(=O)n(-c3ccc4[nH]nnc4c3)c12` [Example 4-121] has a fold induction at 0.1 µM of at least 1.5.
